From US20220144839A1, “INDOLE AHR INHIBITORS AND USES THEREOF” (Ikena Oncology, Inc., priority 2018, published 2022)

These compounds were tested against T1, AHR (UniProt P35869) (assay: DRE-Luciferase Reporter Assay (Alternate Method), Example 1B). Details: concentration which inhibits half of the luciferase activity induced by AHR activating ligand; DRE-luciferase reporter cell line.
T1 sequence (P35869 1-848): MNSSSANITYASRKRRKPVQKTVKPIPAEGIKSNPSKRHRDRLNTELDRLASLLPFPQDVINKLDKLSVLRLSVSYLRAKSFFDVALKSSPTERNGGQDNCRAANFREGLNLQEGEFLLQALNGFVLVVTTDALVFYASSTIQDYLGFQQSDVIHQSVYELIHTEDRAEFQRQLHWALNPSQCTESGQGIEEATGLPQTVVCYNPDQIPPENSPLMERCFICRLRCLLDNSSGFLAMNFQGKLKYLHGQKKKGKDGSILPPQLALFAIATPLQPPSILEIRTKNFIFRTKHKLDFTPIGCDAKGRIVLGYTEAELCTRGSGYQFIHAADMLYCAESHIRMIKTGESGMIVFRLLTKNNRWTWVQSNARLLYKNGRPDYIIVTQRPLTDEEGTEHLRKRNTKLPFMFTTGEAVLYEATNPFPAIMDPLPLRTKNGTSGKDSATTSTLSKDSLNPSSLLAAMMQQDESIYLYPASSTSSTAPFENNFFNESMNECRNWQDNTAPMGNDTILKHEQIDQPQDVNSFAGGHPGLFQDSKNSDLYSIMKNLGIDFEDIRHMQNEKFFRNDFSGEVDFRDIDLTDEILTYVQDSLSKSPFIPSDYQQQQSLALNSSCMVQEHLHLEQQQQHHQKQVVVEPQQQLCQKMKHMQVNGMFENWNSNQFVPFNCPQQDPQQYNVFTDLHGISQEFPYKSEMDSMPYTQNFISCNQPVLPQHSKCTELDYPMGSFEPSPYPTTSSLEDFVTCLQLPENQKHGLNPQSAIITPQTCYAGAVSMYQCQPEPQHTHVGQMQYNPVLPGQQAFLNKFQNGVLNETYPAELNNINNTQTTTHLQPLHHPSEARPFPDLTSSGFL
Format: cell-based
Summary of the method: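 Murine (Hepa1-6, Hepa-1c1c7) or human (HepG2) cells carrying a stable or transient DRE-luciferase reporter, stimulated with an AHR agonist (e.g. TCDD, kynurenine, ITE, BNF, FICZ) plus compound at plating or after overnight culture at 37 °C. Luciferase read after 4, 15 or 24 h; IC50 as concentration halving agonist-only signal relative to no-ligand baseline.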

CC(C)c1cnn2c(N[C@H]3CCc4[nH]c5cc(O)ccc5c4C3)nc(-c3cncc(F)c3)nc12 [Compound I-27b, (6S)-6-[[2-(5-Fluoro-3-pyridyl)-8-isopropyl-pyrazolo[1,5-a][1,3,5]triazin-4-yl]amino]-6,7,8,9-tetrahydro-5H-carbazol-2-ol] and CC(C)c1cnn2c(N[C@H]3CCc4[nH]c5cnccc5c4C3)nc(-c3cncc(F)c3)nc12 [Compound I-13b, (6S)—N-[2-(5-fluoro-3-pyridyl)-8-isopropyl-pyrazolo[1,5-a][1,3,5]triazin-4-yl]-6,7,8,9-tetrahydro-5H-pyrido[3,4-b]indol-6-amine] cannot be ordered by IC50: greater than 1500 nM for the first, greater than 1500 nM for the second.

Compared with CC(C)c1cnn2c(N[C@H]3Cc4[nH]cnc4NC3=O)nc(-c3cncc(F)c3)nc12 [Compound I-62a, (6S)-6-[[2-(5-Fluoro-3-pyridyl)-8-isopropyl-pyrazolo[1,5-a][1,3,5]triazin-4-yl]amino]-1,4,6,7-tetrahydroimidazo[4,5-b]pyridin-5-one], CC(C)c1cnn2c(N[C@@H]3CNc4ccccc4C3)nc(-c3cncc(F)c3)nc12 [Compound I-35a, (3S)—N-[2-(5-Fluoro-3-pyridyl)-8-isopropyl-pyrazolo[1,5-a][1,3,5]triazin-4-yl]-1,2,3,4-tetrahydroquinolin-3-amine] is lower in IC50: greater than 1500 nM for the first, 1000 to 1500 nM for the second. The second is the more potent here.

COC[C@@H](C)c1cnn2c(N[C@@H]3CCc4[nH]c5ccccc5c4C3)nc(-c3cncc(F)c3)nc12 [Compound I-64b, (3R)—N-[2-(5-fluoro-3-pyridyl)-8-[(1S)-2-methoxy-1-methyl-ethyl]pyrazolo[1,5-a][1,3,5]triazin-4-yl]-2,3,4,9-tetrahydro-1H-carbazol-3-amine] and C[C@H](N)c1cnn2c(N[C@@H]3CCc4[nH]c5ccccc5c4C3)nc(-c3cncc(F)c3)nc12 [Compound I-32a, (3R)—N-[8-[(1S)-1-Aminoethyl]-2-(5-fluoro-3-pyridyl)pyrazolo[1,5-a][1,3,5]triazin-4-yl]-2,3,4,9-tetrahydro-1H-carbazol-3-amine] cannot be ordered by IC50: less than 500 nM for the first, less than 500 nM for the second.

Compared with COc1ccnc2c(N[C@@H]3CCc4[nH]c5ccccc5c4C3)nc(-c3cncc(F)c3)nc12 [Compound I-23, (3R)—N-[2-(5-fluoro-3-pyridyl)-8-methoxy-pyrido[3,2-d]pyrimidin-4-yl]-2,3,4,9-tetrahydro-1H-carbazol-3-amine], CC(C)c1cnn2c(N[C@H]3CCc4[nH]c5cccnc5c4C3)nc(-c3cncc(F)c3)nc12 [Compound I-8a, (8S)—N-[2-(5-Fluoro-3-pyridyl)-8-isopropyl-pyrazolo[1,5-a][1,3,5]triazin-4-yl]-6,7,8,9-tetrahydro-5H-pyrido[3,2-b]indol-8-amine] is higher in IC50: less than 500 nM for the first, 1000 to 1500 nM for the second.

First: CC(C)c1cnn2c(N[C@H]3CCc4ccccc4C3)nc(-c3cncc(F)c3)nc12 [Compound I-48b, 2-(5-Fluoro-3-pyridyl)-8-isopropyl-N-[(2S)-tetralin-2-yl]pyrazolo[1,5-a][1,3,5]triazin-4-amine]
Second: C[C@@H](NC(=O)N1CCN(C)CC1)c1cnn2c(N[C@@H]3CCc4[nH]c5ccccc5c4C3)nc(-c3cncc(F)c3)nc12 [Compound I-61b, N-[(1R)-1-[2-(5-Fluoro-3-pyridyl)-4-[[(3R)-2,3,4,9-tetrahydro-1H-carbazol-3-yl]amino]pyrazolo[1,5-a][1,3,5]triazin-8-yl]ethyl]-4-methyl-piperazine-1-carboxamide]
The IC50 of the first is higher: greater than 1500 nM for the first, 500 to 1000 nM for the second.

Compared with CC(C)c1cnn2c(NCCCO)nc(-c3cncc(F)c3)nc12 [Compound I-43, 3-[[2-(5-Fluoro-3-pyridyl)-8-isopropyl-pyrazolo[1,5-a][1,3,5]triazin-4-yl]amino]propan-1-ol], C[C@H](NC(=O)N1CCOCC1)c1cnn2c(N[C@@H]3CCc4[nH]c5ccccc5c4C3)nc(-c3cncc(F)c3)nc12 [Compound I-56a, N-[(1S)-1-[2-(5-Fluoro-3-pyridyl)-4-[[(3R)-2,3,4,9-tetrahydro-1H-carbazol-3-yl]amino]pyrazolo[1,5-a][1,3,5]triazin-8-yl]ethyl]morpholine-4-carboxamide] is lower in IC50: greater than 1500 nM for the first, less than 500 nM for the second.
